# Target: T1, RORγ (Homo sapiens, UniProt P51449)
# T1 construct: expressed in transfected cells; host or cells: 293FT cells (Invitrogen), expression vector pFN26A (Promega)
# T1 sequence (P51449 269-508 limits assumed): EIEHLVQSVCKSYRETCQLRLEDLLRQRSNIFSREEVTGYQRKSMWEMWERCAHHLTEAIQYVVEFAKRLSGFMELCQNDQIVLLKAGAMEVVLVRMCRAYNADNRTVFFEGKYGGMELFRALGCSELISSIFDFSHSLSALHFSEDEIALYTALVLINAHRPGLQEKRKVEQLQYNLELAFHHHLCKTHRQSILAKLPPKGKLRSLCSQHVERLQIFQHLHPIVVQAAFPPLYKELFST
# Assay: RORγ GAL4 reporter gene assay (luciferase readout, 293FT cells)
# Type: cell-based
# Conditions: inhibition of RORγ (GAL4-RORγ-LBD) in transfected 293FT cells, luciferase signal, overnight incubation; read-out: mean pIC50 (converted)
# Experimental: RORγ GAL4 Reporter Gene Assay
# Example inhibitors 1-38 were tested for their ability to inhibit RORγ activity in a RORγ GAL4 reporter gene assay. The assay procedure and results are described below.
# RORγ GAL4 Reporter Gene Assay Description
# A GAL4 one-hybrid reporter system employing luciferase readout was established to determine inhibition of RORγ in 293FT cells. The RORγ ligand-binding domain (LBD) was fused to the yeast GAL4 DNA binding domain (DBD) and placed under the control of the human cytomegalovirus (CMV) immediate early promoter, using expression vector pFN26A (Promega) and standard recombinant DNA cloning methods. To serve as a control in the assay, a similar vector was generated in which the GAL4-DBD was fused to Herpes simplex virus protein 16 (VP16), a constitutive transcriptional activator.
# To monitor the inhibitory effect of compounds on RORγ, a transcriptional reporter construct was used. The pGL4.35 vector (Promega) contains nine copies of the GAL4 Upstream Activator Sequence (UAS). This sequence drives the transcription of the luciferase reporter gene luc2P in response to binding of a fusion protein containing the GAL4 DNA binding domain, as for example expressed by the GAL4-RORγ-LBD and GAL4-VP16 expression vectors described above. To allow a GAL4 fusion protein to drive the expression of the luciferase reporter, the pGL4.35 expression vector and the appropriate GAL4 fusion protein expression vector were bulk transfected in the 293FT cells using standard transfection techniques.
# The day after transfection, cells were plated into 96 well plates, test compound was added and the plates were incubated overnight. Subsequently, the firefly luciferase activity was quantified using luciferase detection reagent and luminescence readout.
# Detailed Assay Description
# 293FT cells (Invitrogen) were transfected with a GAL4 fusion protein expression vector (as described above) and the transcriptional reporter construct (pGL4.35, Promega). 60 μL of TransIT-293 transfection reagent (Mirus Bio) was added drop wise to 1500 μl Opti-MEM I Reduced Serum Medium (Invitrogen) and incubated at RT (RT) for 5 to 20 minutes. 1500 μL of this reagent mixture was added to 5 μg of GAL4 fusion protein expression vector and 5 μg of the transcriptional reporter construct, and incubated at RT for 20 minutes.
# To harvest 293FT cells from a T75 flask, first the culture medium was taken off the cells. Subsequently, the cells were washed with Phosphate Buffered Saline (PBS) (Lonza), after which the PBS was removed. To dissociate the cells, 1 ml of TrypLE Express (Invitrogen) was added to the flask, followed by incubation at RT until the cells visually started to detach. Cells were collected in 5 mL of assay medium (DMEM culture medium (Lonza), 10% dialyzed FBS (Invitrogen) and Pen/Strep (Lonza)) to achieve a single cell suspension. 10×10^6 cells were spun down and re-suspended in 10 mL of assay medium. Subsequently, the cell suspension was added to the transfection mix tube, and then transferred as a whole to a T75 flask (Greiner), followed by overnight (16-24 hours) incubation at 37° C. and 5% CO2.
# For compound screening, the cells were harvested (as described above) and counted. 13×10^6 cells were spun down, the supernatant was aspirated and the cells were re-suspended in 17.3 mL of assay medium obtaining a cell suspension of 0.75×10^6 cells/mL. 80 μL of cell suspension (60,000 cells) was plated per well into a white, flat bottom, tissue culture treated, 96 well screening plates (Greiner).
# Test compounds were diluted, starting from a 10 mM dimethylsulfoxide (DMSO) stock solution, to serial dilutions in DMSO at 500× the final test concentration. Subsequently, these solutions were diluted to 5× the final test concentration in two 10-fold-dilution steps in assay medium. The final DMSO concentration of the 5× test compound solution was 1%. […]
row,Structure (SMILES),IC50 [nM]
1,"O=C(Cc1ccc(S(=O)(=O)CC2CC2)cn1)Nc1ccc(C(O)(C(F)(F)F)C(F)(F)F)cc1 [Example 29, 2-[5-(cyclopropylmethylsulfonyl)-2-pyridyl]-N-[4-[2,2,2-trifluoro-1-hydroxy-1-(trifluoromethyl)ethyl]phenyl]acetamide]",≤ 100
2,"O=C(Cc1ccc(S(=O)(=O)CC2CC2)nc1)Nc1ccc(C(OCCO)(C(F)(F)F)C(F)(F)F)cc1 [Example 28, 2-[6-(cyclopropylmethylsulfonyl)-3-pyridyl]-N-[4-[2,2,2-trifluoro-1-(2-hydroxyethoxy)-1-(trifluoromethyl)ethyl]phenyl]acetamide]",≤ 1000
3,"CCCC(O)(c1ccc(NC(=O)Cc2ccc(S(=O)(=O)CC3CC3)nc2)cc1)C(F)(F)F (stereo not shown) [Example 11, 2-[6-(cyclopropylmethylsulfonyl)-3-pyridyl]-N-[4-[1-hydroxy-1-(trifluoromethyl)butyl]phenyl]acetamide]",≤ 1000
4,"COCCOC(c1ccc(NC(=O)Cc2ccc(S(=O)(=O)CC3CC3)nc2)cc1)(C(F)(F)F)C(F)(F)F [Example 27, 2-[6-(cyclopropylmethylsulfonyl)-3-pyridyl]-N-[4-[2,2,2-trifluoro-1-(2-methoxyethoxy)-1-(trifluoromethyl)ethyl]phenyl]acetamide]",≤ 100
5,"O=C(Cc1ccc(S(=O)(=O)CC2CC2)nc1)Nc1ccc(C(OCC2COC2)(C(F)(F)F)C(F)(F)F)cc1 [Example 26, 2-[6-(cyclopropylmethylsulfonyl)-3-pyridyl]-N-[4-[2,2,2-trifluoro-1-(oxetan-3-ylmethoxy)-1-(trifluoromethyl)ethyl]phenyl]acetamide]",≤ 1000
6,"O=C(Cc1ccc(S(=O)(=O)CC2CC2)nc1)Nc1ccc(C(O)(CC2CCCC2)C(F)(F)F)cc1 (stereo not shown) [Example 15, N-[4-[1-(cyclopentylmethyl)-2,2,2-trifluoro-1-hydroxy-ethyl]phenyl]-2-[6-(cyclopropylmethylsulfonyl)-3-pyridyl]acetamide]",≤ 1000
7,"CCC(O)(c1ccc(NC(=O)Cc2ccc(S(=O)(=O)CC3CC3)nc2)cc1)C(F)(F)F (racemic) [Example 20, 2-[6-(cyclopropylmethylsulfonyl)-3-pyridyl]-N-[4-[1-hydroxy-1-(trifluoromethyl)propyl]phenyl]acetamide]",≤ 1000
8,"O=C(Cc1ccc(S(=O)(=O)CC2CC2)nc1)Nc1ccc(C(O)(C2CC2)C2CC2)cc1 [Example 18, 2-[6-(cyclopropylmethylsulfonyl)-3-pyridyl]-N-[4-[dicyclopropyl(hydroxy)methyl]phenyl]acetamide]",≤ 1000
9,"O=C(Cc1ccc(S(=O)(=O)CC2CC2)nc1)Nc1ccc(C(O)(c2ccccc2)C(F)(F)F)cc1 (stereo not shown) [Example 19, 2-[6-(cyclopropylmethylsulfonyl)-3-pyridyl]-N-[4-(2,2,2-trifluoro-1-hydroxy-1-phenyl-ethyl)phenyl]acetamide]",≤ 100
10,"O=C(Cc1ccc(S(=O)(=O)CC2CC2)cn1)Nc1ccc(C(O)(C2CC2)C2CC2)cc1 [Example 33, 2-[5-(cyclopropylmethylsulfonyl)-2-pyridyl]-N-[4-[dicyclopropyl(hydroxy)methyl]phenyl]acetamide]",≤ 1000
11,"Cc1nc(S(=O)(=O)CC2CC2)ccc1CC(=O)Nc1ccc(C(O)(C(F)(F)F)C(F)(F)F)cc1 [Example 24, 2-[6-(cyclopropylmethylsulfonyl)-2-methyl-3-pyridyl]-N-[4-[2,2,2-trifluoro-1-hydroxy-1-(trifluoromethyl)ethyl]phenyl]acetamide]",≤ 1000

# The remaining lines, values ahead:
row,IC50 [nM],Structure (SMILES)
1,≤ 1000,"COc1cc(C(O)(C(F)(F)F)C(F)(F)F)ccc1NC(=O)Cc1ccc(S(=O)(=O)CC2CC2)nc1 [Example 9, 2-[6-(cyclopropylmethylsulfonyl)-3-pyridyl]-N-[2-methoxy-4-[2,2,2-trifluoro-1-hydroxy-1-(trifluoromethyl)ethyl]phenyl]acetamide]"
2,≤ 1000,"O=C(Cc1ccc(S(=O)(=O)CC2CC2)nc1)Nc1ccc(C(O)(C(F)(F)F)C(F)(F)F)cn1 [Example 10, 2-[6-(cyclopropylmethylsulfonyl)-3-pyridyl]-N-[5-[2,2,2-trifluoro-1-hydroxy-1-(trifluoromethyl)ethyl]-2-pyridyl]acetamide]"
3,≤ 1000,"O=C(Cc1cnc(S(=O)(=O)CC2CC2)nc1)Nc1ccc(C(O)(C(F)(F)F)C(F)(F)F)cc1 [Example 38, 2-[2-(cyclopropylmethylsulfonyl)pyrimidin-5-yl]-N-[4-[2,2,2-trifluoro-1-hydroxy-1-(trifluoromethyl)ethyl]phenyl]acetamide]"
4,≤ 100,"O=C(Cc1ccc(S(=O)(=O)CC2CC2)nc1)Nc1ccc(C(O)(C(F)(F)F)C(F)(F)F)cc1 [Example 1, 2-[6-(cyclopropylmethylsulfonyl)-3-pyridyl]-N-[4-[2,2,2-trifluoro-1-hydroxy-1-(trifluoromethyl)ethyl]phenyl]acetamide]"
5,≤ 1000,"O=C(Cc1ccc(S(=O)(=O)CC2CC2)nn1)Nc1ccc(C(O)(C(F)(F)F)C(F)(F)F)cc1 [Example 37, 2-[6-(cyclopropylmethylsulfonyl)pyridazin-3-yl]-N-[4-[2,2,2-trifluoro-1-hydroxy-1-(trifluoromethyl)ethyl]phenyl]acetamide]"
6,≤ 100,"O=C(Cc1ccc(S(=O)(=O)CC2CC2)nc1)Nc1ccc(C(O)(C(F)(F)F)C(F)(F)F)c(Cl)c1 [Example 5, N-[3-chloro-4-[2,2,2-trifluoro-1-hydroxy-1-(trifluoromethyl)ethyl]phenyl]-2-[6-(cyclopropylmethylsulfonyl)-3-pyridyl]acetamide]"
7,≤ 1000,"COc1cc(NC(=O)Cc2ccc(S(=O)(=O)CC3CC3)nc2)ccc1C(O)(C(F)(F)F)C(F)(F)F [Example 6, 2-[6-(cyclopropylmethylsulfonyl)-3-pyridyl]-N-[3-methoxy-4-[2,2,2-trifluoro-1-hydroxy-1-(trifluoromethyl)ethyl]phenyl]acetamide]"
8,≤ 100,"Cc1cc(NC(=O)Cc2ccc(S(=O)(=O)CC3CC3)nc2)ccc1C(O)(C(F)(F)F)C(F)(F)F [Example 3, 2-[6-(cyclopropylmethylsulfonyl)-3-pyridyl]-N-[3-methyl-4-[2,2,2-trifluoro-1-hydroxy-1-(trifluoromethyl)ethyl]phenyl]acetamide]"
9,≤ 1000,"Cc1cc(S(=O)(=O)CC2CC2)ncc1CC(=O)Nc1ccc(C(O)(C(F)(F)F)C(F)(F)F)cc1 [Example 23, 2-[6-(cyclopropylmethylsulfonyl)-4-methyl-3-pyridyl]-N-[4-[2,2,2-trifluoro-1-hydroxy-1-(trifluoromethyl)ethyl]phenyl]acetamide]"
10,≤ 1000,"O=C(Cc1ccc(S(=O)(=O)CC2CC2(F)F)nc1)Nc1ccc(C(O)(C(F)(F)F)C(F)(F)F)cc1 (racemic) [(−)-22, (−)-2-[6-[(2,2-difluorocyclopropyl)methylsulfonyl]-3-pyridyl]-N-[4-[2,2,2-trifluoro-1-hydroxy-1-(trifluoromethyl)ethyl]phenyl]acetamide]"
11,≤ 100,"O=C(Cc1ccc(S(=O)(=O)CC2CC2)nc1)Nc1ccc(C(O)(C(F)(F)F)C(F)(F)F)cc1F [Example 8, 2-[6-(cyclopropylmethylsulfonyl)-3-pyridyl]-N-[2-fluoro-4-[2,2,2-trifluoro-1-hydroxy-1-(trifluoromethyl)ethyl]phenyl]acetamide]"

# Reference: patent US10118895B2, “ROR gamma (RORγ) modulators” (LEAD PHARMA HOLDING B.V., priority 2015, dated 2018)
